Laboratory results reported in paper PMC5777153 (Cell chemical biology, 2017).

System: human kinome
Test: KinomeScan competitive binding assay across the kinome
Conditions: 10 μM

## COc1cc2c(Oc3ccc(NC(=O)C4(C(=O)Nc5ccc(F)cc5)CC4)cc3F)ccnc2cc1OCCCN1CCOCC1 [foretinib]
  number of kinases bound (percent of control value of 35 or less): 133 kinases
